Values of other authors in patent EP1608381B1, “THERAPEUTIC AND CONSMETIC APPLICATION FOR A COMPOSITION CONTAINING LYCOPENE” (Touche, Marie-José, priority 2002, dated 2003).

Tests used:
[1] = relative to Bétacarotène

CCCCOC(=O)c1ccc(N)cc1 [Butoforme, p-aminobenzoate de n- butyle]
solubilité dans le chlorure de méthylène (chlorure de méthylène): facilement soluble
solubilité dans l'eau froide (eau froide): pratiquement insoluble
soluble dans p. d'alcool à 50° (parts of solvent, alcool à 50°): 10 p.
soluble dans p. d'huile d'olive (parts of solvent, huile d'olive): 12,5 p.
soluble dans p de vaseline (parts of solvent, vaseline): 200 p

C=CCc1ccc(O)c(OC)c1 [EUGENOL, eugénol]
solubilité dans l'eau (eau): insoluble
solubilité dans l'éthanol (éthanol): soluble

CC(C)=CCC/C(C)=C/C=C/C(C)=C/C=C/C(C)=C/C=C/C=C(C)/C=C/C=C(C)/C=C/C=C(\C)CCC=C(C)C [lycopène, psi-psi-carotène]
effet sur les radicaux libres, fois plus que le Bétacarotène [1]: 2 fois
